Measured values: ChEMBL document CHEMBL5291721, “A preclinical secondary pharmacology resource illuminates target-adverse drug reaction associations of marketed drugs” (Nat Commun, 2023)

Columns and labels:
[1] = target: T1, 5-hydroxytryptamine receptor 1A (Homo sapiens, UniProt P08908)
T1 sequence (P08908 whole entry): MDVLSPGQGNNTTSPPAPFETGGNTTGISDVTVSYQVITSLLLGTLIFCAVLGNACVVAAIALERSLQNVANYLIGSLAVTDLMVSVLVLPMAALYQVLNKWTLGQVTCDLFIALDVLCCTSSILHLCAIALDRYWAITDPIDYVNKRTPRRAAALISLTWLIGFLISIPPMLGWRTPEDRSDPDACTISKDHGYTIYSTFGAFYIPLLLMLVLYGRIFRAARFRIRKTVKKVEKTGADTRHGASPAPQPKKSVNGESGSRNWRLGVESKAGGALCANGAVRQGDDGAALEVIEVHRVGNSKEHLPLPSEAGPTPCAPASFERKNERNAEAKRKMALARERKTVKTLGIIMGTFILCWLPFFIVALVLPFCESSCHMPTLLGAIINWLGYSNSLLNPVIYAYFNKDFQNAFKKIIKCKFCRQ

[2] = target: Cannabinoid receptor 1 (Homo sapiens, UniProt P21554)
Sequence of Cannabinoid receptor 1 (P21554 whole entry): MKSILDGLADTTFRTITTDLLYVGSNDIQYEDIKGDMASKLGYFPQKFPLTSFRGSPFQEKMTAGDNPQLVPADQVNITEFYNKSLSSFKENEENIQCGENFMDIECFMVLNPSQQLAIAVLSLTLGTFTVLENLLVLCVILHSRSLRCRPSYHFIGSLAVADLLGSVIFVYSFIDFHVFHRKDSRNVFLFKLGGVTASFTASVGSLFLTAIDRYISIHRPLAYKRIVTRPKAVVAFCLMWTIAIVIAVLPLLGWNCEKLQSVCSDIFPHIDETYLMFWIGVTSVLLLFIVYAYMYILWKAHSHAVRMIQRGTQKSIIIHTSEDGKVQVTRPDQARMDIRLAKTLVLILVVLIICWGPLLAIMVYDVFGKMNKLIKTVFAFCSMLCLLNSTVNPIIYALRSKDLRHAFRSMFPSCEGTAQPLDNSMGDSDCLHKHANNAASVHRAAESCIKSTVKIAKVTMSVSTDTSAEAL

[3] = target: Sodium-dependent noradrenaline transporter (Homo sapiens, UniProt P23975)
Sequence of Sodium-dependent noradrenaline transporter (P23975 whole entry): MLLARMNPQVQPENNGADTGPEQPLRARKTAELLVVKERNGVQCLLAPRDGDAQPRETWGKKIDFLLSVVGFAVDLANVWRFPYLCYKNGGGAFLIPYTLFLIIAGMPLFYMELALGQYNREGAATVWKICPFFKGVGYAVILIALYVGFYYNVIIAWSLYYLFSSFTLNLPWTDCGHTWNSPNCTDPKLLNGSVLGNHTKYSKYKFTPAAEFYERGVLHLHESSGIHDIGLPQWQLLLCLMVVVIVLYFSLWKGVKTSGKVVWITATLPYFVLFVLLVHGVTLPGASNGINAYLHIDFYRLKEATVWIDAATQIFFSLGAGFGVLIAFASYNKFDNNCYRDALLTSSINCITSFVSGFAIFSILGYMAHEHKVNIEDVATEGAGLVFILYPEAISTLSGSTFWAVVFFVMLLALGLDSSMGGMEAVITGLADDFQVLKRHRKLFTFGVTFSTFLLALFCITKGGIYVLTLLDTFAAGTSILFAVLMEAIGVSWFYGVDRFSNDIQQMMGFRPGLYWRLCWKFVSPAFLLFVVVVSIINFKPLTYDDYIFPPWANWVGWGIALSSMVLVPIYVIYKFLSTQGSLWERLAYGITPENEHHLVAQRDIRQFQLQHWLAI

[4] = target: Vascular endothelial growth factor receptor 2 (Homo sapiens, UniProt P35968); type: functional
Sequence of Vascular endothelial growth factor receptor 2 (P35968 whole entry): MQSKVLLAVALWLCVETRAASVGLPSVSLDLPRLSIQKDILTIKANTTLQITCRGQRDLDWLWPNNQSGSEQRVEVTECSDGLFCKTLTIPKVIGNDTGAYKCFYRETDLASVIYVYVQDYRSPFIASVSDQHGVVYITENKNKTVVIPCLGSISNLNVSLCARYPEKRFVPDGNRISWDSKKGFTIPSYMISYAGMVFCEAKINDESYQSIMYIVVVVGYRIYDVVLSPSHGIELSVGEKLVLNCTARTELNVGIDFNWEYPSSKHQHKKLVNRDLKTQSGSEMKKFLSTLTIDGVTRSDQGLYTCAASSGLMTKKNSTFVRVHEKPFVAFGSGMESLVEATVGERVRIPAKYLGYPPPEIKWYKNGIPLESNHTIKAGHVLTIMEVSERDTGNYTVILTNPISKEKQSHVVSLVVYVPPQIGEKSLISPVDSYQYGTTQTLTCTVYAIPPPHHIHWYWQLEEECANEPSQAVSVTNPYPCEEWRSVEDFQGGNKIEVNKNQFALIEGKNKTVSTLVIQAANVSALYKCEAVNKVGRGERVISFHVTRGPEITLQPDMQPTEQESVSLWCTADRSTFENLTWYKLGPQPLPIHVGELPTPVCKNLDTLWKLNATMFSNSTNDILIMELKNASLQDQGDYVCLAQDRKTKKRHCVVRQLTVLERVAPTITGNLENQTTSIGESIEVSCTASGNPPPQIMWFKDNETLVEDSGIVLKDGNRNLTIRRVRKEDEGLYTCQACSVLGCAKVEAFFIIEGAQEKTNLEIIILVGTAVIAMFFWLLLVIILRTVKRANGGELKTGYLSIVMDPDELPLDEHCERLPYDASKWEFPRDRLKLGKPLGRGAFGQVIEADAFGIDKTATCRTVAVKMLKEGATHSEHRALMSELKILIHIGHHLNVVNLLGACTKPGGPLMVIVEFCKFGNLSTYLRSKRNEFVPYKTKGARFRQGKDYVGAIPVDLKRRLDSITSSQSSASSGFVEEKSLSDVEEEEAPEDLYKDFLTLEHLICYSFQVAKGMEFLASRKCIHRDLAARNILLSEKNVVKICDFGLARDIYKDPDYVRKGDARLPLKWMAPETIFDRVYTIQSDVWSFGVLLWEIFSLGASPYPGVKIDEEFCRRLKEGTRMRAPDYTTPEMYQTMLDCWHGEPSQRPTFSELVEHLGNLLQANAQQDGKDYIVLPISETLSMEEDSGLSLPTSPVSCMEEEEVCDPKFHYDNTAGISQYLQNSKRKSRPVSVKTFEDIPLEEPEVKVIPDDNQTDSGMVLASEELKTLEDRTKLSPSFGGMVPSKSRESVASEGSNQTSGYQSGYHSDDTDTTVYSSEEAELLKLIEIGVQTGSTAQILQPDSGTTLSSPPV

[5] = target: Substance-P receptor (Homo sapiens, UniProt P25103)
Sequence of Substance-P receptor (P25103 whole entry): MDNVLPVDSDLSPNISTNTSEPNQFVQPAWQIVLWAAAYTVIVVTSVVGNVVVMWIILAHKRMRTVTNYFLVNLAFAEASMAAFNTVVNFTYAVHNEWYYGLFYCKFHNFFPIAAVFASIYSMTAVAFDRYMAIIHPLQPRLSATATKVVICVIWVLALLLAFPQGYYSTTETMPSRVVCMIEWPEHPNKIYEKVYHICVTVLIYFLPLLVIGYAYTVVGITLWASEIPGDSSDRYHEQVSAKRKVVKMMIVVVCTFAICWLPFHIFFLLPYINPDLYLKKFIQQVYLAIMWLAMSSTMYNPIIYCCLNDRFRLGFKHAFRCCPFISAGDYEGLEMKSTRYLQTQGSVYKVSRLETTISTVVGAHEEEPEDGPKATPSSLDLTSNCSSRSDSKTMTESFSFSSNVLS

[6] = target: T2, Alpha-2A adrenergic receptor (Homo sapiens, UniProt P08913)
T2 sequence (P08913 whole entry): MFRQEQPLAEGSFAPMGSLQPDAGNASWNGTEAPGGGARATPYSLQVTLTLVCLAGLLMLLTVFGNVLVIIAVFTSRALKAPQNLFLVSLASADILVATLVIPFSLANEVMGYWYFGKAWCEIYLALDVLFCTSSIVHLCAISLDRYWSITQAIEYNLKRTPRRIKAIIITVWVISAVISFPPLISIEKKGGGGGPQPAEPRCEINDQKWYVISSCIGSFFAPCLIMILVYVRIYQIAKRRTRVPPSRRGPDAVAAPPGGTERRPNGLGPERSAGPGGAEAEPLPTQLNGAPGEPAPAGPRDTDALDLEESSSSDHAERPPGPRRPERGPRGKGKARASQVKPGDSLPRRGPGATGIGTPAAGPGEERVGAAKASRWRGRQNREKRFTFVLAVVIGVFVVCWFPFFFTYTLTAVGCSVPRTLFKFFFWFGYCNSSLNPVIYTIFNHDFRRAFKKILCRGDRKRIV

[7] = target: D(3) dopamine receptor (Homo sapiens, UniProt P35462)
Sequence of D(3) dopamine receptor (P35462 whole entry): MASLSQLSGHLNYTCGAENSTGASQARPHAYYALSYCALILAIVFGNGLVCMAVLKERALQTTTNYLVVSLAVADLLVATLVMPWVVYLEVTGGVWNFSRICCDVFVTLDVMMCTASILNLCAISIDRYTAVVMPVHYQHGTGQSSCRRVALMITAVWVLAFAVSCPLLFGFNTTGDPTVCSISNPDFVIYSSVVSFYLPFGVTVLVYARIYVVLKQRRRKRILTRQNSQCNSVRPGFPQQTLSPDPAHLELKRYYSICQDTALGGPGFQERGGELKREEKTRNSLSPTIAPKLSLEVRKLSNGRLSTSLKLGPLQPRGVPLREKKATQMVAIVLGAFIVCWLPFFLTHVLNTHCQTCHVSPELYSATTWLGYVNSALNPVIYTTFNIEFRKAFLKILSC

[8] = target: Acetylcholinesterase (Homo sapiens, UniProt P22303); type: functional
[9] = target: D(1A) dopamine receptor (Homo sapiens, UniProt P21728)
Sequence of D(1A) dopamine receptor (P21728 whole entry): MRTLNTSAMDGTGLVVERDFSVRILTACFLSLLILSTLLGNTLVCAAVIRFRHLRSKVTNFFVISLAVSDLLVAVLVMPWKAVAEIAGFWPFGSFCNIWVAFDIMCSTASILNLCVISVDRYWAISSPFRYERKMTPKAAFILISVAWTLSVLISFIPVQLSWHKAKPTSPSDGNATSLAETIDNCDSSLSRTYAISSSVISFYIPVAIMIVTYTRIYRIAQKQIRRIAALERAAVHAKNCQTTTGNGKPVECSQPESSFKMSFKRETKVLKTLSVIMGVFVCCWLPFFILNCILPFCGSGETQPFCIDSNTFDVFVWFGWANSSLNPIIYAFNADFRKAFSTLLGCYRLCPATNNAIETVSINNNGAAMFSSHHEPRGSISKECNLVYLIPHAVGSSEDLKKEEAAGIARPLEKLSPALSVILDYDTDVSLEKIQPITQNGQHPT

[10] = target: Beta-2 adrenergic receptor (Homo sapiens, UniProt P07550)
Sequence of Beta-2 adrenergic receptor (P07550 whole entry): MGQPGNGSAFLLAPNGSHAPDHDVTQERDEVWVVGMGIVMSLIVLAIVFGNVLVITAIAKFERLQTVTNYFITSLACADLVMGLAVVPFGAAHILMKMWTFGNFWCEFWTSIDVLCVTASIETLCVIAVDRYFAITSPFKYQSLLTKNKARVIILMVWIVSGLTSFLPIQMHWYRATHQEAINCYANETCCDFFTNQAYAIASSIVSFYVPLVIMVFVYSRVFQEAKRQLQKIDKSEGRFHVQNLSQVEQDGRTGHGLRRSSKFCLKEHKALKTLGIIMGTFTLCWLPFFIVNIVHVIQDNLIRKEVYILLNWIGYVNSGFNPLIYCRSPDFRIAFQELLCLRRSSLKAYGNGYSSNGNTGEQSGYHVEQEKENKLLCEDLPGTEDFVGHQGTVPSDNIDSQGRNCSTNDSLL

[11] = target: T3, Progesterone receptor (Homo sapiens, UniProt P06401); type: functional
T3 sequence (P06401 whole entry): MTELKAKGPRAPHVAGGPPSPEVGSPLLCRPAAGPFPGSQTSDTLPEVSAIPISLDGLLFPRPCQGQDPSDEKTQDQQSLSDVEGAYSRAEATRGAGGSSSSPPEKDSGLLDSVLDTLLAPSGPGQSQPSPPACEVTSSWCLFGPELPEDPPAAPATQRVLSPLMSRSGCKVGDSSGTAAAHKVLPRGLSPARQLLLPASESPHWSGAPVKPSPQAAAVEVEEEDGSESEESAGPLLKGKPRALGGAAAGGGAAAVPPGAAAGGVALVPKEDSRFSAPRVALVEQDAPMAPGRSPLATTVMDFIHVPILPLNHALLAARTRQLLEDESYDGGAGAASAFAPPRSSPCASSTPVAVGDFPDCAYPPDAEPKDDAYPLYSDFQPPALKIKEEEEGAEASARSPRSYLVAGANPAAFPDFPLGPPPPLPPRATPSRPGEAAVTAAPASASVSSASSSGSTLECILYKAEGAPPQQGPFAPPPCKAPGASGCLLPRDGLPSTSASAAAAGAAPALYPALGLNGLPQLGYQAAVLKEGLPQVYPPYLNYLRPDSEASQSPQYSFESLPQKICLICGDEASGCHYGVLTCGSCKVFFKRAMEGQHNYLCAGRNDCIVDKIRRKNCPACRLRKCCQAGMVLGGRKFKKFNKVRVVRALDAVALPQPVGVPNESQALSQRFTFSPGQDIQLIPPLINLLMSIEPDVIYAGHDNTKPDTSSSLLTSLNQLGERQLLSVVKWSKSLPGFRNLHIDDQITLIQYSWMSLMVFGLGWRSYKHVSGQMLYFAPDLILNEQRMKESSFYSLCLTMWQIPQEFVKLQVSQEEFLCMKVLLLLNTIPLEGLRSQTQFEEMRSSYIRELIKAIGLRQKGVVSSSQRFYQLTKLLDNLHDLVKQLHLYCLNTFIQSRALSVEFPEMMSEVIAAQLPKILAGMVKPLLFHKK

[12] = target: Mu-type opioid receptor (Homo sapiens, UniProt P35372)
[13] = target: 3',5'-cyclic-AMP phosphodiesterase 4A (Homo sapiens, UniProt P27815); type: functional
Sequence of 3',5'-cyclic-AMP phosphodiesterase 4A (P27815 whole entry): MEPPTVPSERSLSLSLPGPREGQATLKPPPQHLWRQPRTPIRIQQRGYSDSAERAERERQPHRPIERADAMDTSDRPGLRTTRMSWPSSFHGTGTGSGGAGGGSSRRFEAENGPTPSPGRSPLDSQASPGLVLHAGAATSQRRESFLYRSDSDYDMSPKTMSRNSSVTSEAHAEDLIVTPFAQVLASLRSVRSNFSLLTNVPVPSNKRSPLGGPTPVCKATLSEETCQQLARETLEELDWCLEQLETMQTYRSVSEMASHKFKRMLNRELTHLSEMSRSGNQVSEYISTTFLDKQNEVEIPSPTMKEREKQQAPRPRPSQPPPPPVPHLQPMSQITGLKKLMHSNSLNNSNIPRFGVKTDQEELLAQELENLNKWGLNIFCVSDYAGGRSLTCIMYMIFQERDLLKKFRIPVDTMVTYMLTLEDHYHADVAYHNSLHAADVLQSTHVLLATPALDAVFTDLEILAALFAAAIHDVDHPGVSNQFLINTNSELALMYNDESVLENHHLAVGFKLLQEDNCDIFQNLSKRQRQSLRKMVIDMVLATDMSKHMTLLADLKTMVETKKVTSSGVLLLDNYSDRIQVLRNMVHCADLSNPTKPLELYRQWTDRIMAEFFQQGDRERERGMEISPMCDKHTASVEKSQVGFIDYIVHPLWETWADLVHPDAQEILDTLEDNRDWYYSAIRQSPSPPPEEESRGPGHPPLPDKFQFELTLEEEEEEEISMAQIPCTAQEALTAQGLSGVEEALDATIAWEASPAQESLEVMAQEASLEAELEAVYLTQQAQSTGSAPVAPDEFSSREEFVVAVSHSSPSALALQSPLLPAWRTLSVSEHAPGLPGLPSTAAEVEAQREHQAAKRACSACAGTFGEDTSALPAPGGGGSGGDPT

[14] = target: Neurotensin receptor type 1 (Homo sapiens, UniProt P30989)

Measured: AC50
Note: assay procedure not described here.

NCC(CC(=O)O)c1ccc(Cl)cc1 (stereo unspecified) [BACLOFEN]
> 30 µM: [3] | [4] | [6] | [8] | [9] | [11] | [12] | [13] | [14]
14.7 µM: [7]
> 10 µM: [1] | [2] | [5] | [10]

Cc1cn([C@H]2C=C[C@@H](CO)O2)c(=O)[nH]c1=O [STAVUDINE]
> 10 µM: [1] | [2] | [5] | [10]
> 30 µM: [3] | [4] | [6] | [7] | [8] | [9] | [12] | [13] | [14]

CS(=O)(=O)c1ccc(C2=C(c3ccccc3)C(=O)OC2)cc1 [ROFECOXIB]
> 30 µM: [3] | [4] | [6] | [7] | [8] | [9] | [12] | [13] | [14]
> 10 µM: [1] | [2] | [5] | [10]

CC[C@H]1OC(=O)[C@H](C)[C@@H](O[C@H]2C[C@@](C)(OC)[C@@H](O)[C@H](C)O2)[C@H](C)[C@@H](O[C@@H]2O[C@H](C)C[C@H](N(C)C)[C@H]2O)[C@](C)(O)C[C@@H](C)CN(C)[C@H](C)[C@@H](O)[C@]1(C)O [AZITHROMYCIN]
> 30 µM: [3] | [6] | [7] | [8] | [9] | [12] | [13] | [14]
> 10 µM: [1] | [2] | [5]
